Assay results as given in patent US12116461B2, “Host-guest interactions for pa superstructure formation” (Northwestern University, priority 2020, dated 2024).
Where a SMILES comes first, the peptide text is derived from it. The star is where a group is joined. Palmitoyl = CCCCCCCCCCCCCCCC(=O)*

How the values were obtained:
[1] = Thixotropy interval study (before/after high shear); type: physicochemical
Experimental: (§1) PA materials were prepared and annealed using methods described in section 2.1.1. An Anton Paar MCR302 Rheometer with a 25 mm cone plate was used for all rheological studies. 150 μL of PA liquid was placed on the sample stage. For experiments using Free Adamantane, 30 μL of either 1 mM or 2 mM adamantane solution (prepared as described in section 2.1.3) was added in droplets to the top plunger. The plunger was then lowered to the measuring position and a humidity collar was added during the “sample trim” phase to prevent sample evaporation during the measurement. The sample was equilibrated for 30 minutes with a constant angular frequency of 10 rad/s and 0.1% strain. The storage and loss modulus were recorded. For thixotropy studies, the sample was applied to the stage as previously mentioned. The first and third interval consisted of 10, 6 second points with an oscillating shear strain of 0.1% and angular frequency of 10 rad/s. The storage and loss modulus were plotted against time. The second interval consisted of 10, 1 second points with a constant shear rate of 100 s^−1. The viscosity was plotted against time. For recovery experiments, G′ and G″ were measured during alternating intervals of low and high strain. The low strain interval was 200 seconds at 0.5% strain and the high strain interval was 50 seconds at 50% strain.

[2] = Rheological measurement of storage modulus; type: physicochemical; settings: no free adamantane added
Experimental: as §1

[3] = 1H-NMR titration, association constant of β-cyclodextrin with 1-adamantaneacetic acid; settings: 1:1 host-guest binding model; 125 mM NaCl, 3 mM KCl buffer pH 7.2-7.4, 25° C.
Experimental: The association constant for the binding between 1-adamantaneacetic acid and β-cyclodextrin was measured in 125 mM NaCl and 3 mM KCl buffer at pH 7.2-7.4. In a typical titration experiment, small amounts of a “guest solution” (100 mM 1-adamantaneacetic acid and 3.5 mM β-cyclodextrin in deuterated buffer) were added to approximately 0.8 ml of “host solution” (3.5 mM β-cyclodextrin in deuterated buffer) until at least 5 equiv of “guest” molecules were added. 1H-NMR spectra were obtained at 25° C. upon each addition of the “guest” solution and a binding isotherm was constructed by monitoring the protons on 1-adamantaneacetic acid.
The binding isotherms were fit to a standard 1:1 host-guest binding model (Eq. 1-3) where [HG] is the concentration of host-guest complex, [H]0 is the total concentration of “host” molecules, [G]0 is the total concentration of “guest” molecules, do is the proton peak position at [HG]/[H]0=0, δ is the proton peak position measured at different values of [HG]/[H]0, and δ∞ is a fitting parameter. All spectra were obtained with a X500 Bruker Avance III HD system equipped with a TXO Prodigy probe and analyzed with the MestreNova (Mestrelab Research) software.

G′ after high shear ([1]; after high shear) [Pa]	G′ before high shear ([1]; before high shear) [Pa]	storage modulus (G′) [2] [Pa]	SMILES	association constant (Ka) [3] [M⁻¹]
26.8	43.9	20±12	CCCCCCCCCCCCCCCC(=O)N[C@H](C(=O)N[C@H](C(=O)N[C@@H](C)C(=O)N[C@@H](C)C(=O)N[C@@H](CCC(=O)O)C(=O)N[C@@H](CCC(=O)O)C(N)=O)C(C)C)C(C)C [E2 PA, C16V2A2E2] (Palmitoyl-VVAAEE-NH2)	
			OC[C@H]1O[C@@H]2O[C@H]3[C@H](O)[C@@H](O)[C@@H](O[C@H]4[C@H](O)[C@@H](O)[C@@H](O[C@H]5[C@H](O)[C@@H](O)[C@@H](O[C@H]6[C@H](O)[C@@H](O)[C@@H](O[C@H]7[C@H](O)[C@@H](O)[C@@H](O[C@H]8[C@H](O)[C@@H](O)[C@@H](O[C@H]1[C@H](O)[C@H]2O)O[C@@H]8CO)O[C@@H]7CO)O[C@@H]6CO)O[C@@H]5CO)O[C@@H]4CO)O[C@@H]3CO [β-cyclodextrin]	395
